# How the values were obtained:
# Test in all cases: Test D pre-/postemergence herbicide test
# [1] = test system: field poppy; assay type: in vivo, Papaver rhoeas; conditions: for Plant response rating: Field Poppy, scale 0 to 100; for Plant response rating, Field Poppy: scale 0 to 100 (0 no effect, 100 complete control)
# Text: (§1) Seeds of plant species selected from bluegrass (annual bluegrass, Poa annua), blackgrass (Alopecurus myosuroides), canarygrass (littleseed canarygrass, Phalaris minor), chickweed (common chickweed, Stellaria media), galium (catchweed bedstraw, Galium aparine), bromegrass, downy (downy bromegrass, Bromus tectorum), field poppy (Papaver rhoeas), field violet (Viola arvensis), foxtail, green (green foxtail, Setaria viridis), deadnettle (henbit deadnettle, Lamium amplexicaule), ryegrass, Italian (Italian ryegrass, Lolium multiflorum), kochia (Kochia scoparia), lambsquarters (Chenopodium album), oilseed rape (Brassica napus), pigweed (Amaranthus retroflexus), chamomile (scentless chamomile, Matricaria inodora), Russian thistle (Salsola kali), speedwell (bird's-eye speedwell, Veronica persica), barley, spring (spring barley, Hordeum vulgare), wheat, spring (spring wheat, Triticum aestivum), buckwheat, wild (wild buckwheat, Polygonum convolvulus), mustard, wild (wild mustard, Sinapis arvensis), oat, wild (wild oat, Avena fatua), radish, wild (wild radish, Raphanus raphanistrum), […]), barley, winter (winter barley, Hordeum vulgare), and wheat, winter (winter wheat, Triticum aestivum) were planted into a silt loam soil and treated preemergence with test chemicals formulated in a non-phytotoxic solvent mixture which included a surfactant. At the same time, these species were planted in pots containing Redi-Earth® planting medium (Scotts Company, 14111 Scottslawn Road, Marysville, Ohio 43041) comprising spaghnum peat moss, vermiculite, wetting agent and starter nutrients and treated with postemergence applications of the test chemicals formulated in the same manner. Plants ranged in height from 2 to 18 cm (1- to 4-leaf stage). Treated plants and controls were maintained in a controlled growth environment for 7 to 21 days after which time all species were compared to controls and visually evaluated. Plant response ratings, summarized in Table D, are based on a scale of 0 to 100 where 0 is no effect and 100 is complete control. A dash (-) response means no test result.
# [2] = test system: lambsquarters; assay type: in vivo, Chenopodium album; conditions: for Plant response rating: Lambsquarters, scale 0 to 100; for Plant response rating, Lambsquarters: scale 0 to 100 (0 no effect, 100 complete control)
# Text: as §1
# [3] = test system: bluegrass; assay type: in vivo, Poa annua; conditions: for Plant response rating: Bluegrass, scale 0 to 100; for Plant response rating, Bluegrass: scale 0 to 100 (0 no effect, 100 complete control)
# Text: as §1
# [4] = test system: speedwell; assay type: in vivo, Veronica persica; conditions: for Plant response rating: Postemergence, Speedwell, scale 0 to 100; for Plant response rating, Speedwell: Preemergence, scale 0 to 100 (0 no effect, 100 complete control)
# Text: as §1
# [5] = test system: mustard, wild; assay type: in vivo, Sinapis arvensis; conditions: for Plant response rating: Mustard, Wild, scale 0 to 100; for Plant response rating, Mustard, Wild: scale 0 to 100 (0 no effect, 100 complete control)
# Text: as §1
structure (smiles),measurement,setting,value
O=C1NCC(c2ccc(F)c(F)c2)C1C(=O)Nc1cccc(F)c1 (racemic) [Compound 12],Plant response rating,"[1]; Postemergence, 16 g ai/ha",0
same,Plant response rating,"[1]; Postemergence, 31 g ai/ha",0
same,Plant response rating,"[1]; Postemergence, 62 g ai/ha",50
same,Plant response rating,"[1]; Postemergence, 125 g ai/ha",60
same,Plant response rating,"[1]; Postemergence, 250 g ai/ha",80
same,"Plant response rating, Field Poppy","[1]; Preemergence, 31 g ai/ha",0
same,"Plant response rating, Field Poppy","[1]; Preemergence, 62 g ai/ha",0
same,"Plant response rating, Field Poppy","[1]; Preemergence, 16 g ai/ha",0
same,Plant response rating,"[1]; Preemergence, 125 g ai/ha",0
same,Plant response rating,"[1]; Preemergence, 250 g ai/ha",0
same,Plant response rating,"[2]; Postemergence, 16 g ai/ha",0
same,Plant response rating,"[2]; Postemergence, 31 g ai/ha",0
same,Plant response rating,"[2]; Postemergence, 62 g ai/ha",10
same,Plant response rating,"[2]; Postemergence, 125 g ai/ha",10
same,Plant response rating,"[2]; Postemergence, 250 g ai/ha",25
same,"Plant response rating, Lambsquarters","[2]; Preemergence, 31 g ai/ha",0
same,"Plant response rating, Lambsquarters","[2]; Preemergence, 62 g ai/ha",0
same,"Plant response rating, Lambsquarters","[2]; Preemergence, 16 g ai/ha",0
same,Plant response rating,"[2]; Preemergence, 125 g ai/ha",30
same,Plant response rating,"[2]; Preemergence, 250 g ai/ha",30
same,Plant response rating,"[3]; Postemergence, 16 g ai/ha",0
same,Plant response rating,"[3]; Postemergence, 31 g ai/ha",0
same,Plant response rating,"[3]; Postemergence, 62 g ai/ha",0
same,Plant response rating,"[3]; Postemergence, 125 g ai/ha",10
same,Plant response rating,"[3]; Postemergence, 250 g ai/ha",10
same,"Plant response rating, Bluegrass","[3]; Preemergence, 31 g ai/ha",0
same,"Plant response rating, Bluegrass","[3]; Preemergence, 62 g ai/ha",0
same,"Plant response rating, Bluegrass","[3]; Preemergence, 16 g ai/ha",0
same,Plant response rating,"[3]; Preemergence, 125 g ai/ha",20
same,Plant response rating,"[3]; Preemergence, 250 g ai/ha",40
same,Plant response rating,[4]; 16 g ai/ha,0
same,Plant response rating,[4]; 31 g ai/ha,0
same,Plant response rating,[4]; 62 g ai/ha,10
same,Plant response rating,[4]; 125 g ai/ha,10
same,Plant response rating,[4]; 250 g ai/ha,25
same,"Plant response rating, Speedwell",[4]; 31 g ai/ha,0
same,"Plant response rating, Speedwell",[4]; 62 g ai/ha,0
same,"Plant response rating, Speedwell",[4]; 125 g ai/ha,0
same,"Plant response rating, Speedwell",[4]; 250 g ai/ha,100
same,"Plant response rating, Speedwell",[4]; 16 g ai/ha,0
same,Plant response rating,"[5]; Postemergence, 16 g ai/ha",0
same,Plant response rating,"[5]; Postemergence, 31 g ai/ha",10
same,Plant response rating,"[5]; Postemergence, 62 g ai/ha",40
same,Plant response rating,"[5]; Postemergence, 125 g ai/ha",100
same,"Plant response rating, Mustard, Wild","[5]; Preemergence, 31 g ai/ha",0
same,"Plant response rating, Mustard, Wild","[5]; Preemergence, 62 g ai/ha",0
same,"Plant response rating, Mustard, Wild","[5]; Preemergence, 16 g ai/ha",0
same,Plant response rating,"[5]; Preemergence, 125 g ai/ha",20
same,Plant response rating,"[5]; Preemergence, 250 g ai/ha",70
O=C1NCC(c2cccc(C(F)(F)F)c2)C1C(=O)Nc1ccc(F)cc1F (racemic) [Compound 207],"Plant response rating, Field Poppy","[1]; Preemergence, 31 g ai/ha",55
same,"Plant response rating, Field Poppy","[1]; Preemergence, 62 g ai/ha",75
same,"Plant response rating, Field Poppy","[1]; Preemergence, 125 g ai/ha",80
same,Plant response rating,"[1]; Preemergence, 250 g ai/ha",100
same,"Plant response rating, Lambsquarters","[2]; Preemergence, 31 g ai/ha",0
same,"Plant response rating, Lambsquarters","[2]; Preemergence, 62 g ai/ha",30
same,"Plant response rating, Lambsquarters","[2]; Preemergence, 125 g ai/ha",65
same,Plant response rating,"[2]; Preemergence, 250 g ai/ha",90
same,"Plant response rating, Bluegrass","[3]; Preemergence, 31 g ai/ha",0
same,"Plant response rating, Bluegrass","[3]; Preemergence, 62 g ai/ha",15
same,"Plant response rating, Bluegrass","[3]; Preemergence, 125 g ai/ha",15
same,Plant response rating,"[3]; Preemergence, 250 g ai/ha",30
same,"Plant response rating, Speedwell",[4]; 31 g ai/ha,20
same,"Plant response rating, Speedwell",[4]; 62 g ai/ha,20
same,"Plant response rating, Speedwell",[4]; 125 g ai/ha,25
same,"Plant response rating, Speedwell",[4]; 250 g ai/ha,30
same,"Plant response rating, Mustard, Wild","[5]; Preemergence, 31 g ai/ha",10
same,"Plant response rating, Mustard, Wild","[5]; Preemergence, 62 g ai/ha",25
same,"Plant response rating, Mustard, Wild","[5]; Preemergence, 125 g ai/ha",25
same,Plant response rating,"[5]; Preemergence, 250 g ai/ha",30
O=C1NCC(c2cccc(C(F)(F)F)c2)C1C(=O)Nc1cccc(F)c1F (centres unmarked) [Compound 241],"Plant response rating, Field Poppy","[1]; Preemergence, 31 g ai/ha",90
same,"Plant response rating, Field Poppy","[1]; Preemergence, 62 g ai/ha",95
same,"Plant response rating, Field Poppy","[1]; Preemergence, 125 g ai/ha",95
same,Plant response rating,"[1]; Preemergence, 250 g ai/ha",100
same,"Plant response rating, Lambsquarters","[2]; Preemergence, 31 g ai/ha",85
same,"Plant response rating, Lambsquarters","[2]; Preemergence, 62 g ai/ha",90
same,"Plant response rating, Lambsquarters","[2]; Preemergence, 125 g ai/ha",90
same,Plant response rating,"[2]; Preemergence, 250 g ai/ha",90
same,"Plant response rating, Bluegrass","[3]; Preemergence, 31 g ai/ha",15
same,"Plant response rating, Bluegrass","[3]; Preemergence, 62 g ai/ha",15
same,"Plant response rating, Bluegrass","[3]; Preemergence, 125 g ai/ha",45
same,Plant response rating,"[3]; Preemergence, 250 g ai/ha",70
same,"Plant response rating, Speedwell",[4]; 31 g ai/ha,10
same,"Plant response rating, Speedwell",[4]; 62 g ai/ha,35
same,"Plant response rating, Speedwell",[4]; 125 g ai/ha,70
same,"Plant response rating, Speedwell",[4]; 250 g ai/ha,85
same,"Plant response rating, Mustard, Wild","[5]; Preemergence, 31 g ai/ha",10
same,"Plant response rating, Mustard, Wild","[5]; Preemergence, 62 g ai/ha",15
same,"Plant response rating, Mustard, Wild","[5]; Preemergence, 125 g ai/ha",15
same,Plant response rating,"[5]; Preemergence, 250 g ai/ha",25
